Measured values from the supplement of paper PMC7840683.
± gives the standard deviation of the averaged measurements.

Tested on: HepaRG
Assay: LDH release cytotoxicity, % of total lysis control; higher = more cytotoxic
Conditions: 48 h
In short: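 The CytoTox-ONE kit was used to read LDH in 50 µL spent medium as resorufin fluorescence on a Tecan Safire, with 0.1% Triton X added to total lysis wells. Beforehand, single-lot HepaRG cells on collagen I-coated 96-well plates had been exposed in duplicate for 48 h to eight-point half-log series (top 100 µM) in serum-free induction medium containing 0.5% DMSO. Percent cytotoxicity was normalized against on-plate vehicle and total lysis controls and averaged over duplicates.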

Compound | LDH release cytotoxicity (0.03162 µM) [%] | LDH release cytotoxicity (0.1 µM) [%] | LDH release cytotoxicity (0.3162278 µM) [%] | LDH release cytotoxicity (1 µM) [%] | LDH release cytotoxicity (3.16228 µM) [%] | LDH release cytotoxicity (10 µM) [%] | LDH release cytotoxicity (31.6228 µM) [%] | LDH release cytotoxicity (100 µM) [%] | also measured
CC1CC2C3CCC4=CC(=O)C=CC4(C)C3(F)C(O)CC2(C)C1(O)C(=O)COP(=O)(O)O (configuration not stated) [Dexamethasone sodium phosphate] | -1.41 ± 1.1 | -1.19 ± 0.21 | -0.881 ± 0.18 | -1.653 ± 0.0034 | -1.03 ± 0.27 | -1.06 ± 0.61 | -0.535 ± 0.093 | -0.295 ± 0.86 | –
CCCCC(CC)COC(=O)c1ccccc1C(=O)OCC(CC)CCCC (configuration not stated) [Di(2-ethylhexyl) phthalate] | – | – | – | – | – | – | – | – | LDH release cytotoxicity (0.01581 µM): -1.27 ± 1.2%; LDH release cytotoxicity (0.05 µM): -1.74 ± 0.036%; LDH release cytotoxicity (0.1581139 µM): -1.47 ± 0.65%; LDH release cytotoxicity (0.5 µM): -0.91 ± 0.3%; LDH release cytotoxicity (1.5811388 µM): -1.48 ± 0.38%; LDH release cytotoxicity (5 µM): -1.76 ± 0.37%; LDH release cytotoxicity (15.8114 µM): -0.407 ± 1.5%; LDH release cytotoxicity (50 µM): -0.778 ± 0.45%
CC(COCC(C)OC(=O)c1ccccc1)OC(=O)c1ccccc1 (configuration not stated) [Di(propylene glycol) dibenzoate] | -0.851 ± 0.69 | -1.49 ± 0.45 | -1.08 ± 0.15 | -1.01 ± 0.013 | -1.58 ± 0.024 | -1.58 ± 0.33 | -1.03 ± 1.1 | 0.42 ± 1.6 | –
CCCCCCCCOC(=O)c1ccccc1C(=O)OCCCCCCCC [Di-n-octyl phthalate] | -0.293 ± 0.47 | -1.33 ± 0.57 | -0.746 ± 0.37 | -0.29 ± 0.31 | -1.1 ± 0.62 | -0.705 ± 0.2 | -0.176 ± 0.076 | 5.1 ± 2 | –
CC(C)(C)OOC(C)(C)C [Di-tert-butyl peroxide] | – | – | – | – | – | – | – | – | LDH release cytotoxicity (0.01581 µM): -1.21 ± 0.27%; LDH release cytotoxicity (0.05 µM): -2.14 ± 0.51%; LDH release cytotoxicity (0.1581139 µM): -1.99 ± 0.23%; LDH release cytotoxicity (0.5 µM): -2.18 ± 0.81%; LDH release cytotoxicity (1.5811388 µM): -1.46 ± 0.93%; LDH release cytotoxicity (5 µM): -1.68 ± 1.1%; LDH release cytotoxicity (15.8114 µM): -1.75 ± 0.98%; LDH release cytotoxicity (50 µM): -1.55 ± 0.28%
CC(=O)CC(C)(C)O [Diacetone alcohol] | – | – | – | – | – | – | – | – | LDH release cytotoxicity (0.016602 µM): -0.631 ± 2.5%; LDH release cytotoxicity (0.0525 µM): 0.0827 ± 1.3%; LDH release cytotoxicity (0.16602 µM): -0.266 ± 1.6%; LDH release cytotoxicity (0.525 µM): 0.0034 ± 1.3%; LDH release cytotoxicity (1.660196 µM): -0.934 ± 0.13%; LDH release cytotoxicity (5.25 µM): -1.02 ± 0.65%; LDH release cytotoxicity (16.602 µM): -0.505 ± 0.51%; LDH release cytotoxicity (52.5 µM): -2.05 ± 3%
C=CCOC(=O)c1ccccc1C(=O)OCC=C [Diallyl phthalate] | 0.139 ± 0.96 | 0.0319 ± 0.41 | -0.423 ± 1.2 | -0.76 ± 0.22 | -0.551 ± 0.21 | 0.184 ± 0.77 | -0.538 ± 0.2 | 0.377 ± 0.38 | –
CCOP(=S)(OCC)Oc1cc(C)nc(C(C)C)n1 [Diazinon] | -0.351 ± 0.5 | -0.469 ± 0.17 | -1.1 ± 0.52 | -1.24 ± 0.3 | 0.347 ± 0.03 | -0.4 ± 0.31 | -0.512 ± 0.59 | 0.528 ± 0.71 | –
CCOP(=O)(OCC)Oc1cc(C)nc(C(C)C)n1 [Diazoxon] | -0.61 ± 0.39 | -1.35 ± 0.75 | -0.708 ± 1.4 | -1.37 ± 1.6 | -1.41 ± 0.85 | -0.802 ± 2.1 | -0.357 ± 1.4 | 1.03 ± 2.2 | –
c1ccc2c(c1)oc1ccccc12 [Dibenzofuran] | -0.992 ± 0.24 | -1.07 ± 0.44 | -1.34 ± 0.76 | -1.2 ± 0.83 | -1.19 ± 1 | -0.829 ± 0.93 | -0.8185 ± 0.0015 | 1.45 ± 0.45 | –
N#CC(Br)Br [Dibromoacetonitrile] | -2.24 ± 0.96 | -3.22 ± 0.87 | -2.74 ± 0.21 | -2.98 ± 0.13 | -2.65 ± 0.41 | -2.89 ± 1.6 | -2.1 ± 0.82 | -0.937 ± 0.31 | –
CCCCOC(=O)CCCCC(=O)OCCCC [Dibutyl adipate] | – | – | – | – | – | – | – | – | LDH release cytotoxicity (0.0317809 µM): -0.761 ± 1%; LDH release cytotoxicity (0.1005 µM): -1.45 ± 0.41%; LDH release cytotoxicity (0.317809 µM): -1.74 ± 0.8%; LDH release cytotoxicity (1.005 µM): -1.12 ± 0.14%; LDH release cytotoxicity (3.17809 µM): -1.24 ± 0.86%; LDH release cytotoxicity (10.05 µM): -0.568 ± 0.45%; LDH release cytotoxicity (31.7809 µM): 0.579 ± 0.27%; LDH release cytotoxicity (100.5 µM): 2.35 ± 1.2%
CCCCOC(=O)CCCCCCCCC(=O)OCCCC [Dibutyl decanedioate] | -1.01 ± 0.4 | -1.61 ± 0.65 | -1.81 ± 0.16 | -2.3 ± 0.41 | -2.91 ± 0.79 | -1.92 ± 0.027 | -1.43 ± 1 | 0.112 ± 0.92 | –
CCCCOC(=O)c1ccccc1C(=O)OCCCC [Dibutyl phthalate] | 6.54 ± 1.9 | 3.46 ± 1.6 | 3.28 ± 0.066 | 4.3 ± 0.12 | 4.61 ± 0.89 | 4.63 ± 1 | 6.08 ± 2 | 9.42 ± 0.15 | –
COc1c(Cl)ccc(Cl)c1C(=O)O [Dicamba] | -2.43 ± 1.4 | -1.52 ± 0.043 | -0.804 ± 0.36 | -2.09 ± 0.64 | -0.996 ± 0.75 | -0.906 ± 0.014 | -0.688 ± 0.24 | 0.691 ± 0.52 | –
N#Cc1c(Cl)cccc1Cl [Dichlobenil] | 0.00697 ± 0.72 | -0.347 ± 1.1 | -1.05 ± 0.013 | -1.65 ± 0.47 | 0.43 ± 1.9 | 0.582 ± 0.39 | 1.87 ± 0.054 | 1.99 ± 1.2 | –
O=C(O)C(Cl)Cl [Dichloroacetic acid] | -1.93 ± 1.3 | -1.93 ± 0.89 | -1.5 ± 1.6 | -2.38 ± 1.1 | -2.6 ± 1.3 | -1.71 ± 0.32 | -2.34 ± 0.81 | 0.0869 ± 1.1 | –
Clc1ccc(C(c2ccc(Cl)cc2)C(Cl)(Cl)Cl)cc1 [Dichlorodiphenyltrichloroethane] | 0.0415 ± 1 | 0.0911 ± 1 | 0.015 ± 0.3 | 0.105 ± 0.45 | 0.853 ± 0.39 | 0.81 ± 0.52 | 0.658 ± 0.99 | 1.05 ± 0.28 | –
CC(Oc1ccc(Cl)cc1Cl)C(=O)O (configuration not stated) [Dichlorprop] | -0.461 ± 0.19 | -0.49 ± 0.4 | -0.517 ± 1.3 | 0.354 ± 0.43 | 0.35 ± 0.52 | 0.358 ± 0.17 | 0.57 ± 0.15 | 1.75 ± 0.062 | –
